Source: patent publication US8168747B2, “On-growth inhibiting compounds” (Viogard AB, priority 2002, dated 2012)
Entries after “also recorded” stand apart in the source; their conditions may differ.

What was measured:
Helicoverpa punctigera = conditions: feeding trial, cited from earlier work
B. improvisus [1] = assay: Larval bioassay: settlement and mortality of barnacle cyprids; assay type: in vivo, Balanus improvisus
Experimental: (§1) The brood stock of adult barnacles (B. improvisus, Darwin 1854) were allowed to settle on plexiglass panels in the sea on a raft outside Tjärnö Marine Biological Laboratory (58° 53′ N, 11° 8′ E). Cleaned from epiphytes they were brought to the laboratory and immediately placed in trays with running seawater (salinity […]). When regularly fed, with nauplii of Artemia salina, B. improvisus will spawn throughout the year. For larval rearing we used the method according to Berntsson et al., described in “Reduction of barnacle recruitment on micro-textured surfaces: Analysis of effective topographic characteristics and evaluation of skin friction”, Biofouling 16, 245-261. The experiment for the evaluation of the effect on settlement and mortality was performed using polystyrene Petri dishes (Ø48 mm) to which 10 ml of the peptide dissolved to different concentrations in filtered seawater (0.2 μm, 32±1%) was added. Competent cyprids (20±2 ind.) were added to each dish in four replicates and dishes with filtered seawater served as controls. Dishes were maintained for 3-4 days in room temperature after which they were examined under a stereo microscope for attached and metamorphosed individuals and also, for dead cyprids.
Results are reported as means±standard error and using 1-factor analysis of variance (ANOVA).

B. improvisus [2] = assay: Reversibility test: cyprids moved to fresh seawater; assay type: in vivo, Balanus improvisus; conditions: cyprids from 2.5 μM moved to fresh sea water; five days
Experimental: as §1
Half of the number of cyprids in each petri dish incubated at the highest tested concentration, 2.5 μM, were moved to a petri dish containing 10 ml of fresh seawater. […]

Row | Substance | mortality of insect larvae (Helicoverpa punctigera; over time) | growth and development of the insect larvae (Helicoverpa punctigera) | settlement (B. improvisus [1]; 0.0025 μM (lowest tested concentration), 3-4 days, control 67±3%) | settlement (B. improvisus [1]; 0.025 μM, 3-4 days) | inhibition of settlement (B. improvisus [1]; 0.25 μM, 3-4 days) | mortality compared to the control (B. improvisus [1]; all tested concentrations up to 2.5 μM, control saltwater only) | mortality in reversibility test (B. improvisus [2])
1 | kalata B1: cyclotide with potent insecticidal activities reported by Jennings and coworkers (cyclo(GLPVCGETCVGGTCNTPGCTCSWPVCTRN); not fully specified (bridges); cysteine pairing not given here; UniProt P56254 89-117, looked up) | increase in mortality over time | greatly affected | – | – | – | – | –
2 | cyclo(VWIPCISSAIGCSCKSKVCYRNGIPCGESC) (head-to-tail cyclic) [cycloviolacin O2] | – | – | 68±3% | 21±0.5% | complete inhibition of settlement; also recorded: complete inhibition of fouling | No one of the tested concentrations showed an increase in mortality; also recorded: No increase in mortality could be detected | No increase in mortality was observed
